Data published in US10040788B2, “1,3,4-thiadiazole compounds and their use in treating cancer” (AstraZeneca AB, priority 2014, dated 2018).

Tests used:
[1] = biological target: GLS1 (Homo sapiens (Human), UniProt O94925); assay: GLS Enzyme Potency Assay (Glutamate Oxidase/AmplexRed coupled assay); type: biochemical; details: 6His tagged GLS protein (amino acids 63-669); geometric mean where repeated
Source text: The following assays were used to measure the effects of the compounds of the present invention: a) GLS Enzyme Potency Assay; b) GLS Cell Potency Assay; c) GLS Cell Proliferation Assay; and d) Mouse Xenograft Model. During the description of the assays, generally: • i. The following abbreviations have been used: CO2=Carbon dioxide; DMEM=Dulbecco's Modified Eagle Medium; DMSO=Dimethyl sulphoxide; EDTA=Ethylenediaminetetraacetic acid; EGTA=Ethylene glycol tetraacetic acid; FCS=Foetal calf serum; h=Hour(s); NBS=Non-binding surface; SDS=Sodium dodecyl sulphate; r.t.=room temperature; TRIS=Tris(Hydroxymethyl)aminomethane. • ii. IC50 values were calculated using a smart fitting model in Genedata. […] Assay a): GLS Enzyme Potency Assay
A Glutamate Oxidase/AmplexRed coupled assay was used to measure the ability of compounds to bind to and inhibit the activity of GLS1 in vitro. […] GLS1 was diluted to 2× working concentration and incubated at r.t. to allow the tetrameric/dimeric forms to reach steady state. Assay measurements were performed in buffer comprising 50 mM TRIS pH 7.8, 100 mM NaPO4, pH 7.8, 0.001% v/v Tween20. […] DMSO concentration was maintained at 2% by back filling with DMSO solution. […] 3 μL of 100 mM glutamine diluted in assay buffer was then added and the reaction incubated at r.t. for 60 minutes. […] An artefact version of the assay where the 6His tagged GLS protein and glutamine were replaced with assay buffer was also used to rule out non specific effects on the assay components.

[2] = biological target: cellular GLS activity (Homo sapiens (Human), UniProt O94925); assay: GLS Cell Potency Assay (PC3 coupled assay measuring cellular glutamate depletion); type: cell-based; details: PC3 cells, 6 h incubation, cellular glutamate depletion; geometric mean where repeated; read-out: Assay b) GLS Cell Potency Assay IC50
cellular GLS activity, sequence (O94925 55-669): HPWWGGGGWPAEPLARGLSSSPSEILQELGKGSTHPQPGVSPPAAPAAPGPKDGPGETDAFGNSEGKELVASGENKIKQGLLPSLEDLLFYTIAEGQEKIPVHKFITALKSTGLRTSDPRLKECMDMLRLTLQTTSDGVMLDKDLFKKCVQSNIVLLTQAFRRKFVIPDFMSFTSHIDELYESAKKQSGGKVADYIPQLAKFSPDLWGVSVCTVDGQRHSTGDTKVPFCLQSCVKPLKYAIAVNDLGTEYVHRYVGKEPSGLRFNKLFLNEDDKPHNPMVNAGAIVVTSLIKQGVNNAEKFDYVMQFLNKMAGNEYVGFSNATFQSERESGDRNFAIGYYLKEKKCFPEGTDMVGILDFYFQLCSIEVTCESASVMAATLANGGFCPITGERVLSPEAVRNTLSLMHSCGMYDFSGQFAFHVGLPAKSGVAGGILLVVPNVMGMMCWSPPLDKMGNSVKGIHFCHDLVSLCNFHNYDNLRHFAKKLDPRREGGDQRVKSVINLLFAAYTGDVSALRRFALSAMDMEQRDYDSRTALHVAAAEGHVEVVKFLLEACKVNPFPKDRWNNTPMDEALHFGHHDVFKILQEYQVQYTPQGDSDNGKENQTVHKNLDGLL
Source text: (§1) The following assays were used to measure the effects of the compounds of the present invention: a) GLS Enzyme Potency Assay; b) GLS Cell Potency Assay; c) GLS Cell Proliferation Assay; and d) Mouse Xenograft Model. During the description of the assays, generally: • i. The following abbreviations have been used: CO2=Carbon dioxide; DMEM=Dulbecco's Modified Eagle Medium; DMSO=Dimethyl sulphoxide; EDTA=Ethylenediaminetetraacetic acid; EGTA=Ethylene glycol tetraacetic acid; FCS=Foetal calf serum; h=Hour(s); NBS=Non-binding surface; SDS=Sodium dodecyl sulphate; r.t.=room temperature; TRIS=Tris(Hydroxymethyl)aminomethane. • ii. […]
Compounds were assessed for their potential to inhibit cellular GLS activity by use of a PC3 coupled assay measuring cellular glutamate depletion. […] DMSO concentration was maintained at 0.3% by back filling with DMSO solution. PC3 cells were grown in phenol free DMEM, 10% dialyzed FCS, 2 mM glutamine and following dispersal by trypsinisation were plated at 5.6×10^3 cells per well in 40 μl of growth medium directly into the 384 well assay plates containing dispensed compound. After incubation for 6 h at 37° C., 5% CO2 growth media was aspirated and cells lysed in 15 μl of buffer containing 10 mM TRIS pH7.4, 100 mM NaCl, 1 mM EDTA, 1 mM EGTA, 1 mM NaF, 20 mM Na4P2O7, 2 mM Na3VO4, 1% Triton X-100, 10% glycerol, 0.1% SDS and 0.5% deoxycholate.

[3] = test system: NCI-H1703 cells; assay: GLS Cell Proliferation Assay (NCI-H1703); type: cell-based, human; details: Homo sapiens, 120 h; NCI-H1703 cells, 5 days incubation; geometric mean where repeated; read-out: Assay c) GLS Cell Proliferation Assay
Source text: as §1
The ability of compounds to inhibit cell growth was measured using a 384 well plate NCI-H1703 cell proliferation assay. NCI-H1703 cells were grown in phenol red free RPMI1640, 10% FCS and 2 mM glutamine and seeded at a density of 750 cells per well in 40 μl of growth medium into clear-bottom 384 well assay plates (Corning product code 3712) and incubated for 24 h at 37° C., 5% CO2. […] DMSO concentration was maintained at 0.3% by back filling with DMSO solution. Plates were incubated for 5 days at 37° C., 5% CO2, Sytox Green and Saponin added to final concentration of 2 μM and 0.25% respectively and incubated for 6 h prior to analysis. Plates were read on an Acumen eX3 (TTP Labtech) using 488 nm excitation and FITC filter set (500-530 nm) for emission. IC50 values were calculated by curve fitting to max inhibition of day zero growth using GeneData software analysis.

GLS1, sequence (O94925 63-669): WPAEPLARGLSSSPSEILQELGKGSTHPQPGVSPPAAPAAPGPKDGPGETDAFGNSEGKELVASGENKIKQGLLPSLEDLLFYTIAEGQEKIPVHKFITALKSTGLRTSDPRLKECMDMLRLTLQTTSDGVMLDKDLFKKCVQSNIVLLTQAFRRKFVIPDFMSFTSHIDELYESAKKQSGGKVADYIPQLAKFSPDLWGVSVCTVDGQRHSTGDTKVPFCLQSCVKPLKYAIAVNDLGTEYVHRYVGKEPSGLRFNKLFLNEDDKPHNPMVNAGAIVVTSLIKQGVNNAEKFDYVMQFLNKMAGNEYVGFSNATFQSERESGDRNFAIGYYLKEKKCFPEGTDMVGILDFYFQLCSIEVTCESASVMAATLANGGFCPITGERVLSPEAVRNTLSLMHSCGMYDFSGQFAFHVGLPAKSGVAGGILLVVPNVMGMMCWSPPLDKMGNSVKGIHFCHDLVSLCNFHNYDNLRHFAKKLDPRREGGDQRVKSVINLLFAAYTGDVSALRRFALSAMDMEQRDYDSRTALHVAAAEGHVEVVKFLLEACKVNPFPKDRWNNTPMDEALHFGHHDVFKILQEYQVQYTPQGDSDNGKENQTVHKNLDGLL

IC50 [1] [nM]	IC50 [2] [nM]	IC50 [3] [nM]	Structure (SMILES)
46.9	0.35	1.78	COc1cccc([C@@H](OC)C(=O)Nc2nnc(N[C@@H]3CCN(c4cncnn4)C3)s2)c1 [21(b), (2R)-2-methoxy-2-(3-methoxyphenyl)-N-[5-[[(3R)-1-(1,2,4-triazin-6-yl)pyrrolidin-3-yl]amino]-1,3,4-thiadiazol-2-yl]acetamide]
–	15.7	168	COc1cccc([C@H](OC)C(=O)Nc2nnc(N[C@@H]3CCN(c4cncnn4)C3)s2)c1 [21(a), (2S)-2-methoxy-2-(3-methoxyphenyl)-N-[5-[[(3R)-1-(1,2,4-triazin-6-yl)pyrrolidin-3-yl]amino]-1,3,4-thiadiazol-2-yl]acetamide]
25.5	0.78	15.1	COc1cc([C@H](OC)C(=O)Nc2nnc(N[C@@H]3CCN(c4cccnn4)C3)s2)ccc1F [Example 14(a), (2S)-2-(4-Fluoro-3-methoxy-phenyl)-2-methoxy-N-[5-[[(3R)-1-pyridazin-3-ylpyrrolidin-3-yl]amino]-1,3,4-thiadiazol-2-yl]acetamide]
74.7	4.58	118	COc1ccc([C@H](OC)C(=O)Nc2nnc(N[C@@H]3CCN(c4nccnn4)C3)s2)cc1 [Example 24, (2S)-2-methoxy-2-(4-methoxyphenyl)-N-[5-[[(3R)-1-(1,2,4-triazin-3-yl)pyrrolidin-3-yl]amino]-1,3,4-thiadiazol-2-yl]acetamide]
31	0.401	10.8	COc1ccc([C@H](OC)C(=O)Nc2nnc(N[C@@H]3CCN(c4cccnn4)C3)s2)cc1 [Example 11, (2S)-2-Methoxy-2-(4-methoxyphenyl)-N-[5-[[(3R)-1-pyridazin-3-ylpyrrolidin-3-yl]amino]-1,3,4-thiadiazol-2-yl]acetamide]
2460	300	2960	COc1cc([C@H](OC)C(=O)Nc2nnc(N[C@@H]3CCN(c4nccnn4)C3)s2)ccc1F [32(a), (2S)-2-(4-fluoro-3-methoxy-phenyl)-2-methoxy-N-[5-[[(3R)-1-(1,2,4-triazin-3-yl)pyrrolidin-3-yl]amino]-1,3,4-thiadiazol-2-yl]acetamide]
–	–	35.4	CO[C@@H](C(=O)Nc1nnc(N[C@@H]2CCN(c3cncnn3)C2)s1)c1cccc(OC(F)F)c1 [23(b), (2R)-2-[3-(difluoromethoxy)phenyl]-2-methoxy-N-[5-[[(3R)-1-(1,2,4-triazin-6-yl)pyrrolidin-3-yl]amino]-1,3,4-thiadiazol-2-yl]acetamide]
–	–	3570	CO[C@H](C(=O)Nc1nnc(N[C@@H]2CCN(c3nccnn3)C2)s1)c1ccc(F)cc1 [17(a), (2S)-2-(4-fluorophenyl)-2-methoxy-N-[5-[[(3R)-1-(1,2,4-triazin-3-yl)pyrrolidin-3-yl]amino]-1,3,4-thiadiazol-2-yl]acetamide]
–	–	13.5	CO[C@H](C(=O)Nc1nnc(N[C@@H]2CCN(c3cccnn3)C2)s1)c1ccc(F)cc1 [Example 12(a), (2S)-2-(4-Fluorophenyl)-2-methoxy-N-[5-[[(3R)-1-pyridazin-3-ylpyrrolidin-3-yl]amino]-1,3,4-thiadiazol-2-yl]acetamide]
–	–	2.23	CO[C@H](C(=O)Nc1nnc(N[C@@H]2CCN(c3cccnn3)C2)s1)c1cccc(OC(F)F)c1 [Example 7(a), (2S)-2-[3-(Difluoromethoxy)phenyl]-2-methoxy-N-[5-[[(3R)-1-pyridazin-3-ylpyrrolidin-3-yl]amino]-1,3,4-thiadiazol-2-yl]acetamide]
–	–	5.04	CO[C@H](C(=O)Nc1nnc(N[C@@H]2CCN(c3nccnn3)C2)s1)c1cccc(OC(F)(F)F)c1 [Example 8(a), (2S)-2-Methoxy-N-[5-[[(3R)-1-(1,2,4-triazin-3-yl)pyrrolidin-3-yl]amino]-1,3,4-thiadiazol-2-yl]-2-[3-(trifluoromethoxy)phenyl]acetamide]

Further lines, the compound ahead of its results:

Structure (SMILES)	IC50 [1] [nM]	IC50 [2] [nM]	IC50 [3] [nM]
CCO[C@@H](C(=O)Nc1nnc(N[C@@H]2CCN(c3nccnn3)C2)s1)c1ccc(OC)cc1 [29(b), (2R)-2-ethoxy-2-(4-methoxyphenyl)-N-[5-[[(3R)-1-(1,2,4-triazin-3-yl)pyrrolidin-3-yl]amino]-1,3,4-thiadiazol-2-yl]acetamide]	1370	134	1960
CCO[C@@H](C(=O)Nc1nnc(N[C@@H]2CCN(c3cccnn3)C2)s1)c1ccccc1 [Example 10(b), (2R)-2-Ethoxy-2-phenyl-N-[5-[[(3R)-1-pyridazin-3-ylpyrrolidin-3-yl]amino]-1,3,4-thiadiazol-2-yl]acetamide]	110	13	234
CCO[C@H](C(=O)Nc1nnc(N[C@@H]2CCN(c3nccnn3)C2)s1)c1ccc(F)cc1 [35(a), (2S)-2-ethoxy-2-(4-fluorophenyl)-N-[5-[[(3R)-1-(1,2,4-triazin-3-yl)pyrrolidin-3-yl]amino]-1,3,4-thiadiazol-2-yl]acetamide]	1950	337	7130
CCO[C@H](C(=O)Nc1nnc(N[C@@H]2CCN(c3nccnn3)C2)s1)c1ccc(F)c(OC)c1 [33(a), (2S)-2-ethoxy-2-(4-fluoro-3-methoxy-phenyl)-N-[5-[[(3R)-1-(1,2,4-triazin-3-yl)pyrrolidin-3-yl]amino]-1,3,4-thiadiazol-2-yl]acetamide]	50.2	7.13	168
CCO[C@@H](C(=O)Nc1nnc(N[C@@H]2CCN(c3nccnn3)C2)s1)c1ccccc1 [34(b), (2R)-2-ethoxy-2-phenyl-N-[5-[[(3R)-1-(1,2,4-triazin-3-yl)pyrrolidin-3-yl]amino]-1,3,4-thiadiazol-2-yl]acetamide]	1480	168	2900
COc1cccc([C@H](OC)C(=O)Nc2nnc(N[C@@H]3CCN(c4nccnn4)C3)s2)c1 [Example 4(a), (2S)-2-Methoxy-2-(3-methoxyphenyl)-N-[5-[[(3R)-1-(1,2,4-triazin-3-yl)pyrrolidin-3-yl]amino]-1,3,4-thiadiazol-2-yl]acetamide]	35.5	1.51	5.01
CO[C@@H](C(=O)Nc1nnc(N[C@@H]2CCN(c3nccnn3)C2)s1)c1cccc(OC(F)F)c1 [19(b), (2R)-2-[3-(difluoromethoxy)phenyl]-2-methoxy-N-[5-[[(3R)-1-(1,2,4-triazin-3-yl)pyrrolidin-3-yl]amino]-1,3,4-thiadiazol-2-yl]acetamide]	519	37.4	–
[2H]C([2H])([2H])O[C@@H](C(=O)Nc1nnc(N[C@@H]2CCN(c3cccnn3)C2)s1)c1ccccc1 [18(b), (2R)-2-phenyl-N-[5-[[(3R)-1-pyridazin-3-ylpyrrolidin-3-yl]amino]-1,3,4-thiadiazol-2-yl]-2-(trideuteriomethoxy)acetamide]	–	–	73
CCO[C@H](C(=O)Nc1nnc(N[C@@H]2CCN(c3cccnn3)C2)s1)c1ccccc1 [Example 10(a), (2S)-2-Ethoxy-2-phenyl-N-[5-[[(3R)-1-pyridazin-3-ylpyrrolidin-3-yl]amino]-1,3,4-thiadiazol-2-yl]acetamide]	–	0.91	10.9
